Test results published in patent US20240197891A1, “PHARMACEUTICAL COMPOSITIONS COMPRISING POH DERIVATIVES” (UNIVERSITY OF SOUTHERN CALIFORNIA, priority 2021, published 2024).
Blank lines part the entries; values can stand above or below the compound they belong to.

Key:
[1] = test system: human malignant glioma cells U87, A172 and U251; experiment: MTT cytotoxicity assays on U87, A172 and U251 cells (stated jointly); assay type: cell-based
Experimental: J. of Immunological Methods 65: 55 63, 1983. […] Invasion inhibition may be studied by Boyden chambers.
Then U87, A172 and U251 cells were treated with dimethyl celecoxib bisPOH carbamate (POH-DMC) (e.g., synthesized by the method in Example 1), and the MTT cytotoxicity assays performed (FIG. 2).
Then TMZ-resistant glioma cell lines U87, A172 and U251 cells were treated with temozolomide POH carbamate (POH-TMZ) (e.g., synthesized by the method in Example 3).

[2] = test system: USC-02 glioma cancer stem cells; experiment: MTT cytotoxicity assay, USC-02 glioma cancer stem cells; assay type: cell-based; details: USC-02; increasing concentrations (TMZ 0-400 uM; POH 0-2 mM)
From the text: (§1) Cancer Lett. 2011 Mar. 28; 302(2):100-8.

[3] = test system: TMZ sensitive (U251) cells; experiment: Colony forming assay, TMZ sensitive U251 cells; assay type: cell-based, human; details: TMZ sensitive U251 cells
Experimental: (§2) Colony forming assays were carried out after cells were treated with TMZ alone, POH alone, and the TMZ-POH conjugate. […] Cancer Lett. 2011 Mar. 28; 302(2):100-8.

[4] = test system: USC-04 glioma cancer stem cells; experiment: MTT cytotoxicity assay, USC-04 glioma cancer stem cells; assay type: cell-based; details: USC-04; increasing concentrations (TMZ 0-400 uM; POH 0-2 mM)
From the text: as §1

[5] = test system: TMZ resistant (U251TR) U251 cells; experiment: Colony forming assay, TMZ resistant U251TR cells; assay type: cell-based, human
Experimental: as §2

UV-B exposed skin = experiment: UV-B induced skin damage in SKH-1 hairless mice; assay type: in vivo, mouse; details: topical post exposure
Experimental: (§3) FIG. 23 illustrates the simulation of sunlight by irradiation with UVB lamps (310 nm). The irradiation was conducted in a phototoxicity testing chamber and fitted with a UV-B lamp providing with a spectral output of approximately 310 nm. The source of UVR was a short-wavelength UV lamp (VWR. Radnor, PA). The peak spectral output of this lamp was approximately 310 nm, with no energy detectable below 260 nm, approximately 0.6% between 260 and 280 nm (UV-C), 72.7% between 280 and 320 nm (UV-B), and 26.7% between 320 and 400 nm (UV-A). Radiation dosage of UV-B per irradiation was set at 54 mJ/cm^2 for the first week, 72 mJ/cm^2 for the second week, 90 mJ/cm^2 for the third week, and 108 mJ/cm^2 for the remaining weeks, as confirmed by a UV monitor. Each irradiation event was 10 minutes long.
POH-LA conjugate, linoleic acid, POH, and the additive combination of linoleic acid and POH were each suspended in glycerol:ethanol (90:10 vol/vol) to a final concentration of 10 nM with 50 μL and applied to each SKH-1 hairless mouse post UV-B exposure for treatment. The sunblock mouse was gently wiped on the exposure area with the sunblock towelette. […] In FIG. 23B, the mice were treated with the glycerol:ethanol vehicle only. In FIG. 23C, the mice were treated with POH. In FIG. 23D, the mice were treated with linoleic acid. In FIG. 23E, the mice were treated with an mixture of linoleic acid and POH. In FIG. 23F, the mice were treated with POH-LA conjugate. In FIG. 23G, the mice were treated with sunblock. The application of POH-LA conjugate to UV-B exposed tissue limits the amount of observable skin damage as compared to the untreated control (B) or the individual components of POH-LA conjugate either alone (POH—C and LA—D), in mixture (E), or with sunblock (G).
as §3, with “FIGS. 24A-D illustrates the” for “FIG. 23 illustrates the”, “UV lamp (VWR, Radnor, PA).” for “UV lamp (VWR. Radnor, PA).”, “second week, and 90 mJ/cm^2” for “second week, 90 mJ/cm^2”, “third week, as confirmed” for “third week, and 108 mJ/cm^2 for the remaining weeks, as confirmed”, “UV monitor.” for “UV monitor. Each irradiation event was 10 minutes long.”
POH-LA conjugate (FIG. 24A), linoleic acid (FIG. 24B), POH (FIG. 24C), and the additive combination of linoleic acid and POH (FIG. 24D) were each suspended in glycerol:ethanol (90:10 vol/vol) to a final concentration of 10 nM with 50 μL applied to each mouse post UV-B exposure for treatment. The application of POH-LA conjugate to UV-B exposed tissue limits the amount of observable skin damage as compared the individual components of POH-LA conjugate either alone or in mixture.
as §3, with “This example” for “FIG. 23”, “nm)” for “nm). The irradiation”, “(VWR,” for “(VWR.”, “monitor.” for “monitor. Each irradiation event was 10 minutes long.”
POH-LA conjugate, linoleic acid, POH, and the additive combination of linoleic acid and POH were each suspended in glycerol:ethanol (90:10 vol/vol) to a final concentration of 10 nM with 50 μL applied to each mouse post UV-B exposure for treatment. […]

TNF-α = experiment: Serum TNF-α following UV exposure; assay type: in vivo, mouse
Experimental: (§4) SKH-1 hairless mice were treated with 10 mg/kg POH-LA conjugate freshly prepared daily. The POH-LA conjugate was formulated in glycerol:ethanol (90:10) while the control animals received the glycerol:ethanol vehicle only or the commercially available sunblock (Well & Good Sun Protection Wipes SPF 15). Additional test groups were treated with POH formulated in the glycerol:ethanol vehicle or linoleic acid formulated in the glycerol:ethanol vehicle. 50 μL of each formulation was placed on a area 1 cm^2 area that was exposed to the UV light. The mice were treated with their respective formulations after exposure to the UV light. In FIG. 22A, the mouse was treated with sunblock. In FIG. 22B, the mouse was treated with POH. In FIG. 22C, the mouse was treated with linoleic acid. In FIG. 22D, the mouse was treated with POH-LA conjugate. In FIG. 22D, the mouse was treated with the glycerol:ethanol vehicle only. The POH-LA conjugate, POH or linoleic acid solutions were gently spread on the skin surface and allowed to air dry. The sunblock mouse was gently wiped on the exposure area with the sunblock towelette. This exposure and treatment went on for a maximum of 10 weeks. Throughout the experimental period the animals were photographed and weighed. At the end of the experimental period the mice were photographed and euthanized, followed by skin and blood collection. Blood was analyzed for markers of inflammation and DNA recovered from the exposed area of the skin and analyzed for markers of DNA damage.
(§5) Furthermore, blood samples were taken from each mouse 4 hours after the last cutaneous treatment. About 0.5 mL of blood was collected by cardiac puncture […]. Serum was aliquoted in Eppendorf tubes and store at −80° C. as preparation for cytokine analyses. […]
(§6) Mice were treated with 10 mg/kg POH-LA conjugate freshly prepared daily. […] Blood was analyzed for markers of inflammation and DNA recovered from the exposed area of the skin and analyzed for markers of DNA damage.

IL-1β = experiment: Serum IL-1β following UV exposure; assay type: in vivo, mouse
Experimental: as §4, §5, §6

IL-6 = experiment: Serum IL-6 following UV exposure; assay type: in vivo, mouse
Experimental: as §4, with “In FIG. 22D, the mouse was treated with the glycerol:ethanol vehicle only.” left out
as §5, §6

U87 human glioma cells = experiment: MTT cytotoxicity assay, U87 cells; assay type: cell-based; details: Homo sapiens, U-87 MG, U-87 cells, 48 hours
From the text: (§7) In vitro efficacy of the present composition can be determined using methods well known in the art. For example, the cytotoxicity of the present monoterpene (or sesquiterpene) and/or the therapeutic agents may be studied by MTT [3-(4,5-dimethylthiazol-2-yl)-2,5-diphenyl tetrazolium bromide] cytotoxicity assay. MTT assay is based on the principle of uptake of MTT, a tetrazolium salt, by metabolically active cells where it is metabolized into a blue colored formazan product, which can be read spectrometrically. J. of Immunological Methods 65: 55 63, 1983. The cytotoxicity of the present monoterpene (or sesquiterpene) derivative and/or the therapeutic agents may be studied by colony formation assay. Functional assays for inhibition of VEGF secretion and IL-8 secretion may be performed via ELISA. Cell cycle block by the present monoterpene (or sesquiterpene) derivative and/or the therapeutic agents may be studied by standard propidium iodide (PI) staining and flow cytometry. Invasion inhibition may be studied by Boyden chambers. In this assay a layer of reconstituted basement membrane, Matrigel, is coated onto chemotaxis filters and acts as a barrier to the migration of cells in the Boyden chambers. Only cells with invasive capacity can cross the Matrigel barrier. Other assays include, but are not limited to cell viability assays, apoptosis assays, and morphological assays. […]

LN229 human glioma cells = experiment: cells; details: Homo sapiens, LN-229, 48 h
From the text: (§8) In vitro efficacy of the present composition can be determined using methods well known in the art. For example, the cytotoxicity of the present monoterpene (or sesquiterpene) and/or the therapeutic agents may be studied by MTT [3-(4,5-dimethylthiazol-2-yl)-2,5-diphenyl tetrazolium bromide] cytotoxicity assay. MTT assay is based on the principle of uptake of MTT, a tetrazolium salt, by metabolically active cells where it is metabolized into a blue colored formazan product, which can be read spectrometrically. J. of Immunological Methods 65: 55 63, 1983. The cytotoxicity of the present monoterpene (or sesquiterpene) derivative and/or the therapeutic agents may be studied by colony formation assay. Functional assays for inhibition of VEGF secretion and IL-8 secretion may be performed via ELISA. Cell cycle block by the present monoterpene (or sesquiterpene) derivative and/or the therapeutic agents may be studied by standard propidium iodide (PI) staining and flow cytometry. Invasion inhibition may be studied by Boyden chambers. In this assay a layer of reconstituted basement membrane, Matrigel, is coated onto chemotaxis filters and acts as a barrier to the migration of cells in the Boyden chambers. Only cells with invasive capacity can cross the Matrigel barrier. Other assays include, but are not limited to cell viability assays, apoptosis assays, and morphological assays.
(§9) To compare the cytotoxicity of Rolipram POH Carbamate (POH-Rolipram) (e.g., synthesized by the method in Example 5) with rolipram, […] inducing differentiation and apoptosis in glioma cells, A172, U87, U251 and LN229 human glioma cells were treated with either POH-Rolipram or rolipram for 48 hours.

U251 human glioma cells = experiment: MTT cytotoxicity assay, U251 cells
From the text: as §8, §9
MTT cytotoxicity assays were carried out after cells were treated with the TMZ-POH conjugate. The MTT cytotoxicity assays were carried out as described in Chen T C, et al. Green tea epigallocatechin gallate enhances therapeutic efficacy of temozolomide in orthotopic mouse glioblastoma models. Cancer Lett. 2011 Mar. 28; 302(2):100-8.

A172 human glioma cells = experiment: MTT cytotoxicity assay, A172 cells; assay type: cell-based; details: Homo sapiens, A-172 cells, 48 hours
From the text: as §7

Structure (SMILES): C=C(C)C1CC=C(COC(=O)N(C(=O)OCC2=CCC(C(=C)C)CC2)S(=O)(=O)c2ccc(-n3nc(C(F)(F)F)cc3-c3cc(C)ccc3C)cc2)CC1 (stereo not shown) [POH-DMC]
cytotoxicity / kill rates (MTT) [1]: much better cytotoxicity than DMC alone

Structure (SMILES): Cn1nnc2c(C(N)=O)ncn2c1=O [TMZ, temozolomide]
cytotoxicity / kill rates (MTT) [1]: minimal cytotoxicity
cytotoxicity (MTT) [2]: did not induce significant cytotoxicity
cytotoxicity (colony forming assay) [3]: demonstrated cytotoxicity
cytotoxicity (MTT) [4]: did not induce significant cytotoxicity
cytotoxicity (colony forming assay) [5]: minimal cytotoxicity

Structure (SMILES): CCCCC/C=C\C/C=C\CCCCCCCC(=O)O [linoleic acid]
observable skin damage (UV-B exposed skin; 3 weeks of UV-B exposure and treatment): displayed damage
observable skin damage (UV-B exposed skin; 5 weeks of UV-B exposure and treatment): displayed damage
TNF-α levels (TNF-α): 126.9 ± 14.6 pg/mL
IL-1β serum levels increase (IL-1β): 8.3 ± 2.1 pg/mL
IL-6 levels (IL-6): 18.3 ± 3.4 pg/mL

IC50 (LN229 human glioma cells): > 100 µM
Structure (SMILES): COc1ccc(C2CNC(=O)C2)cc1OC1CCCC1 (stereo not shown) [rolipram, reference compound]
IC50 (U87 human glioma cells): > 1000 µM
plateau cytotoxicity (U251 human glioma cells): 60%
IC50 (U251 human glioma cells; Homo sapiens, U-251, 48 h): 170 µM
IC50 (A172 human glioma cells): ~1000 µM
